{
  "source": "patent US20250019644A1",
  "about": "“Quantitatively Mapping Amino Acid Properties (QMAP) Cell Culture Media” (UNIVERSITY OF IOWA RESEARCH FOUNDATION, priority 2023, published 2025)",
  "test_system": "HCT116 cells",
  "assay": "Metabolic profiling of tryptophan metabolite-treated cells, LC-MS",
  "type": "cell-based, human",
  "protocol": "[…] Cell plates were lyophilized overnight before metabolite extraction. To extract metabolites, 1 ml of an extraction buffer composed of 2:2:1 methanol/acetonitrile/water with internal standards at 1 μg/ml each (D4-Citric Acid, 13C5-Glutamine, 13C5-Glutamic Acid, 13C6-Lysine, 13C5-Methionine, 13C3-Serine, D4-Succinic Acid, 13C11-Tryptophan, and D8-Valine; Cambridge Isotope Laboratories) was added to the lyophilized cell samples. Cells were scraped for 20 seconds and collected into Eppendorf tubes, flash-frozen in liquid nitrogen, and sonicated for 10 minutes.\nSamples were then placed on a rotating platform at −20° C. for 1 hour and centrifuged at 4° C. for 10 minutes at 21,000×g. 300 μL of the cleared metabolite extracts were transferred to fresh tubes for additional processing. An equal volume of each extract was pooled to serve as a quality control (QC) sample, which was analyzed at the beginning, end, and at a regular interval throughout an instrument run. Extraction buffer alone was analyzed as a processing blank sample. Metabolite extracts, the quality control sample, and the processing blank were evaporated to dryness using a speed-vacuum.\nDried extracts were reconstituted in 30 μL of acetonitrile/water (1:1, V/V), vortexed for 10 minutes, and incubated at −20° C. for 18 hours. Samples were then centrifuged at 4° C. for 2 minutes at 21,000×g and the supernatant was transferred to autosampler vials for analysis.\nFor LC chromatographic separation, 2 μL of reconstituted metabolite extracts, QC sample, and processing blank were run on a Millipore SeQuant ZIC-PHILIC (2.1×150 mm, 5 um particle size, Millipore Sigma #150460) column with a ZIC-PHILIC guard column (20×2.1 mm, Millipore Sigma #150437) attached to a Thermo Vanquish Flex UHPLC. The mobile phase comprised Buffer A [20 mM (NH4)2CO3, 0.1% NH4OH (v/v)] and Buffer B [acetonitrile]. The chromatographic gradient was run at a flow rate of 0.150 mL/min as follows: 0-20 min-linear gradient from 80 to 20% Buffer B; 20-20.5 min-linear gradient from 20 to 80% Buffer B; and 20.5-28 min-hold at 80% Buffer B. Data were acquired using a Thermo Q Exactive MS operated in full-scan, polarity-switching mode with a spray voltage set to 3.0 kV, the heated capillary held at 275° C., and the HESI probe held at 350° C. The sheath gas flow was set to 40 units, the auxiliary gas flow was set to 15 units, and the sweep gas flow was set to 1 unit. MS data acquisition was performed with polarity switching in a range of m/z 70-1,000, with the resolution set at 70,000, the AGC target at 10e6, and the maximum injection time at 200 ms. The QC sample was analyzed at the beginning and end of the LC-MS run and after every 10 samples.\nAcquired LC-MS and GC-MS data were processed using the Thermo Scientific TraceFinder software. Targeted metabolites were identified by matching accurate mass and retention times to the University of Iowa Metabolomics Core Facility's in-house library of confirmed standards. After peak area integration by TraceFinder, NOREVA software was applied for signal drift correction on a metabolite-to-metabolite basis using the pooled QC sample that had been analyzed throughout the instrument run. Within individual samples, Post-NOREVA metabolite levels were divided by the total metabolite load (sum of all metabolite values) to equally weight individual metabolites for comparison across samples.",
  "data": [
    {"compound": "N[C@@H](Cc1c[nH]c2ccccc12)C(=O)O", "note": "[tryptophan, L-tryptophan]", "values": [
      {"measurement": "xanthommatin level", "setting": "IFN-γ (50 ng/μL) for 24 hours, then tryptophan 1 mM for 6 hours, QMAP", "value": "only tryptophan metabolite to significantly increase"},
      {"measurement": "3HK level", "setting": "tryptophan supplementation", "value": "not detectable"}
    ]}
  ]
}
